Reference: ChEMBL document CHEMBL3507680, “University of Dundee, Gates Library screen for HepG2 cell viability”

Assay: Human HepG2 cell viability assay in 384 well format
Type: toxicity, cell-based
Parameters: dose 125 nL, time 70.5 hour; cytotoxicity at 70.5 h: concentration not given beside the values
Settings: HepG2 cells, read-out: Inhibition
In the case of `Cc1ccc(C(=O)NS(=O)(=O)c2ccc3c(c2)OCCCO3)o1`, the cytotoxicity at 70.5 h is reported as 11.7%. For `CCN1CCN(c2ccc(C(=O)NC(C)c3ccncc3)cc2)CC1` (stereo not drawn), the cytotoxicity at 70.5 h was 6.23%. For `NCCn1cc(C(=O)NCc2ccccc2Cn2cccn2)nn1`, the cytotoxicity at 70.5 h was -6.05%. Compound `CN(C)c1cc(C(=O)N2CCCCC2)ccn1` has a cytotoxicity at 70.5 h of 0.476%. For `CCOc1ccc(CNC(=O)c2cnc(OC)nc2)cc1`, the cytotoxicity at 70.5 h was -2.49%. With `Cc1ccc(C2=CCN(C(=O)C3CCN(C)C(=O)C3)CC2)cc1` (stereo not drawn) the cytotoxicity at 70.5 h was -6.32%. In the case of `Cc1nnc(CN(Cc2ccc3c(c2)OCO3)C2CCCCC2)o1`, the cytotoxicity at 70.5 h is reported as -2.59%. `CN(C)C[C@H]1C[C@@H]2CN(C(=O)c3ccno3)C[C@@H]2O1` gave a cytotoxicity at 70.5 h of -16.7%. With `CS(=O)(=O)N1CCCC12CCN(Cc1nccs1)C2` (stereo not drawn) the cytotoxicity at 70.5 h was -1.64%. `CC(C(=O)Nc1ncccn1)N1CCc2[nH]nc(C(F)(F)F)c2C1` (stereo not drawn) gave a cytotoxicity at 70.5 h of -6.74%. For `CCc1nc(C)sc1CN1CC[C@](C)(O)[C@H](C)C1`, the cytotoxicity at 70.5 h was -2.71%. `Cc1nc(C)c(-c2ccn(CC(=O)Nc3cnn(C)n3)n2)s1` gave a cytotoxicity at 70.5 h of 8.07%. Compound `Cc1ccc(CC(=O)Nc2ccc(CS(C)(=O)=O)c(F)c2)cc1` has a cytotoxicity at 70.5 h of -2.59%. Compound `CCc1nnc2n1CCN(C(=O)c1ccc3[nH]cnc3c1)C2` has a cytotoxicity at 70.5 h of 4.85%. `COC(=O)c1cccc(NC(=O)CCn2nc(-c3cccs3)oc2=O)c1` showed a cytotoxicity at 70.5 h of 0.767%. With `CCC(CN1CCN(C)CC1)NC(=O)C1(c2cccc(F)c2)CC1` (stereo not drawn) the cytotoxicity at 70.5 h was -4.87%. In the case of `CCn1cnnc1CNC(=O)N1CCN(c2nccs2)CC1`, the cytotoxicity at 70.5 h is reported as -3.76%. `CC(C)c1cc2c(O)nc(CSCC(=O)NCc3ccccn3)nc2s1` showed a cytotoxicity at 70.5 h of -5.56%. With `COc1c(C(=O)NCC2CCCO2)nnn1Cc1ccccc1` (stereo not drawn) the cytotoxicity at 70.5 h was -3.19%. For `Cc1cc(C(=O)NC(C)c2nnn[nH]2)c2cccc(C)c2n1` (stereo not drawn), the cytotoxicity at 70.5 h was -0.0967%. Work on `CCc1nc(Cn2c(=O)n(CC)c3ccccc32)no1` yielded a cytotoxicity at 70.5 h of -7.55%. In the case of `CN(Cc1ccc(Cl)s1)C(=O)NCCC(=O)N1CCCCCC1`, the cytotoxicity at 70.5 h is reported as -4.9%. `CCOC(=O)c1nc(COc2ccc(CC(N)=O)cc2)no1` showed a cytotoxicity at 70.5 h of -10.5%. In the case of `O=S(=O)(C1CC1)N1CCc2ncnc(-c3ccncc3)c2CC1`, the cytotoxicity at 70.5 h is reported as -0.987%. With `CNS(=O)(=O)c1cccc(CNC(=O)c2cnn(C)c2C)c1` the cytotoxicity at 70.5 h was -11.8%. Work on `Cn1nnc2c1CCN(Cc1ccccn1)C2COCc1ccccc1` (stereo not drawn) yielded a cytotoxicity at 70.5 h of 14.7%. `Cn1cc(CN2C[C@H](N3CCOCC3)[C@@H]3OCCC[C@@H]32)cn1` showed a cytotoxicity at 70.5 h of -4.71%. With `COCCN(Cc1sccc1C)c1nc(C)nc2sccc12` the cytotoxicity at 70.5 h was -3.07%. `Cc1cc(N2CCN(C(=O)CCc3scnc3C)CC2)nc(N)n1` gave a cytotoxicity at 70.5 h of 18.7%. With `CCn1cc(NC(=O)NCC(O)CN2CCc3ccccc3C2)cn1` (stereo not drawn) the cytotoxicity at 70.5 h was 11.8%. `Cc1cc(C)c2nc(CN3CCC(CN)C3)cc(O)c2c1` (stereo not drawn) gave a cytotoxicity at 70.5 h of 6.13%. `COc1cc(NC(=O)CCn2nc(-c3cccs3)oc2=O)cc(OC)c1` gave a cytotoxicity at 70.5 h of -7.55%. With `CC(CCc1ccccc1)NC(=O)CNCCCN1CCOCC1` (stereo not drawn) the cytotoxicity at 70.5 h was 10.1%. In the case of `CC(O)CCN(C)S(=O)(=O)Cc1ccc(Cl)c(Cl)c1` (stereo not drawn), the cytotoxicity at 70.5 h is reported as -3.92%. `OCCN1CCOC2(CCCN(c3ncccn3)C2)C1` (stereo not drawn) showed a cytotoxicity at 70.5 h of -2.47%. With `CC(=O)N1CCC(c2nc(C)cc(-c3ccccc3C(=O)O)n2)CC1` the cytotoxicity at 70.5 h was -3.01%. For `Cc1cc(C)n(NC(=O)c2ccccc2C)c(=O)c1`, the cytotoxicity at 70.5 h was -3.12%. With `Cc1cc2nc(-c3ccccc3)cc(NCC3CCS(=O)(=O)C3)n2n1` (stereo not drawn) the cytotoxicity at 70.5 h was 8.05%. `CCOC(=O)[C@]12CCCN(Cc3nccs3)C[C@H]1CN(CCN(C)C)C2` showed a cytotoxicity at 70.5 h of -10.1%. `c1ccc(N2CCc3ncnc(C4CC4)c3CC2)nc1` showed a cytotoxicity at 70.5 h of -12.5%. Work on `Cc1nc(C)n(CC2CN(CCOc3ccc(C#N)cc3)CCO2)n1` (stereo not drawn) yielded a cytotoxicity at 70.5 h of -13.3%. `O=C(O)c1coc(COc2cccc3cnccc23)n1` showed a cytotoxicity at 70.5 h of -7.63%. With `CC(C)(C)C(N)c1nc(-c2nnc[nH]2)no1` (stereo not drawn) the cytotoxicity at 70.5 h was -2.07%. `CN(C)CCNC(=O)c1ccn(-c2ccc3ccccn23)n1` gave a cytotoxicity at 70.5 h of -6.93%. With `Cc1cc(Br)c(O)c(-c2nc(N3CCCCC3)sc2C)c1` the cytotoxicity at 70.5 h was 13.1%. For `Cc1cc(Cl)ccc1-n1ncc(C(=O)N(C)CCc2ccccn2)c1N`, the cytotoxicity at 70.5 h was 49.3%. Work on `CC1(C)CN(CC(=O)NCc2ccccc2F)C[C@]1(C)O` yielded a cytotoxicity at 70.5 h of -9.16%. For `COc1ccc(CN(CCC#N)CCN2CCOCC2)c(OC)c1`, the cytotoxicity at 70.5 h was -4.65%. With `Cc1noc(C)c1C(=O)NCc1ccc(N2CCOC(C)C2)nc1` (stereo not drawn) the cytotoxicity at 70.5 h was 4.56%. With `COc1ccc2c(c1)C(=O)NC1(CC2)CCN(Cc2ccccc2)C1` (stereo not drawn) the cytotoxicity at 70.5 h was -3.55%. For `CCc1c(C(=O)N2CCN(c3ncccn3)CC2)cnn1C(C)(C)C`, the cytotoxicity at 70.5 h was -2.98%. Compound `Cc1c[nH]nc1C1CCCN(C(=O)Cn2cccn2)C1` (stereo not drawn) has a cytotoxicity at 70.5 h of -5.23%. For `Cc1ccc(NC2COC3(CCN(CC(C)C)CC3)C2)nn1` (stereo not drawn), the cytotoxicity at 70.5 h was 27.8%. `Cc1nc(NCC23CCCN2CCC3)cc(C2CCCNC2)n1` (stereo not drawn) gave a cytotoxicity at 70.5 h of -4.8%. Compound `Cn1ncc2c1CCCC2NCc1cnc(-c2ccccc2)nc1` (stereo not drawn) has a cytotoxicity at 70.5 h of -0.439%. Compound `CCn1ccnc1CN1CCOC(CNc2cccnn2)C1` (stereo not drawn) has a cytotoxicity at 70.5 h of -9.35%. For `Cc1cc(CN2CCOC(CNc3cccnn3)C2)no1` (stereo not drawn), the cytotoxicity at 70.5 h was 2.59%. Compound `CC(CC(=O)NCCS(N)(=O)=O)C1CCCCC1` (stereo not drawn) has a cytotoxicity at 70.5 h of -9.82%. `CC(=O)NCc1nc(Cc2cccc(Cl)c2)nn1C1CCN(C)CC1` gave a cytotoxicity at 70.5 h of 6.7%. In the case of `O=C([C@H]1CCS(=O)(=O)[C@@H]2CN(Cc3ccc(F)cc3)C[C@H]12)N1CCCC1`, the cytotoxicity at 70.5 h is reported as -4.67%. In the case of `CS(=O)(=O)N1CCC2(CCN(C(=O)c3cccs3)CC2)CC1`, the cytotoxicity at 70.5 h is reported as -8.9%. With `Cc1ccc(C2COCCN2C(=O)c2ccc(C#N)cc2)o1` (stereo not drawn) the cytotoxicity at 70.5 h was -7.82%. Work on `O=C(NCCN1CCOCC1)c1cc(-c2ccc(Cl)s2)[nH]n1` yielded a cytotoxicity at 70.5 h of -1.44%. Compound `CC(=O)N1CCC(NC(=O)c2cc(Cl)ccc2O)CC1` has a cytotoxicity at 70.5 h of -4.41%. Compound `CC(=O)NCCNCC1(O)CCCN(CCC2CCCCC2)C1=O` (stereo not drawn) has a cytotoxicity at 70.5 h of -1.79%. For `CN1C(=O)CC(C(=O)O)C12CCN(Cc1ccc(F)cc1Cl)CC2` (stereo not drawn), the cytotoxicity at 70.5 h was -9.57%. `CN(c1ccncn1)C1CC2(CCN(C(=O)c3ccsc3)C2)C1` (stereo not drawn) showed a cytotoxicity at 70.5 h of -28.9%. `CC(C)c1nn(C)c(N(C)C)c1CNCC(O)c1ccccc1F` (stereo not drawn) gave a cytotoxicity at 70.5 h of 17.9%. For `CC1c2ncc(Cn3cccn3)n2CCN1Cc1cccnc1` (stereo not drawn), the cytotoxicity at 70.5 h was -1.36%. For `CN1CCC2(CCN(CC3CC3)CC2)C1=O`, the cytotoxicity at 70.5 h was -7.27%. Compound `COc1cc(C(=O)Nc2cn[nH]c2)ccc1C` has a cytotoxicity at 70.5 h of -7%. Work on `Cc1cc(C(=O)N2CCCC(n3cncn3)C2)on1` (stereo not drawn) yielded a cytotoxicity at 70.5 h of 26.7%. For `CN(C)c1ccc(CCNC(=O)C2CCC(=O)N(C3CCCC3)C2)cc1` (stereo not drawn), the cytotoxicity at 70.5 h was -8%. With `CC(=O)Nc1ccc(CN2C[C@H]3CC[C@@H]2CN(c2ncccn2)C3)cc1` the cytotoxicity at 70.5 h was -4.04%. Compound `CCn1ncc2c1CCCC2NCc1csc(COC)n1` (stereo not drawn) has a cytotoxicity at 70.5 h of 21.6%. In the case of `CC(C)N1CCC(c2nc3ccc(-c4ccnn4C)cn3n2)CC1`, the cytotoxicity at 70.5 h is reported as 19.8%. `CCC(CO)NCc1ccc(-c2ccc(F)cc2)o1` (stereo not drawn) gave a cytotoxicity at 70.5 h of -2.16%. `COc1cccc(CCCN2CCC(N(C)S(C)(=O)=O)CC2)c1` showed a cytotoxicity at 70.5 h of 4.63%. Work on `CC1(C)CN(Cc2ccncc2)CCS1(=O)=O` yielded a cytotoxicity at 70.5 h of 24.1%. `Cc1cnc(CNc2ccc(C(=O)NCc3ccco3)cc2C)o1` showed a cytotoxicity at 70.5 h of 6.63%. `CN(C)c1cc(CNC(=O)c2ccc(F)cc2)ccn1` gave a cytotoxicity at 70.5 h of 2.85%. Compound `O=C(CC1CC1)N1CCC2(CCCN(c3ncccn3)C2)CC1` has a cytotoxicity at 70.5 h of -10.9%. In the case of `CN(Cc1cn2c(n1)CN(C(=O)C1CCOCC1)CC2)Cc1ccco1`, the cytotoxicity at 70.5 h is reported as -1.65%.
